# From US20130337564A1, “Treatment of Pluripotent Cells” (Janssen Biotech, Inc., priority 2012, published 2013)
# Key:
# [1] = test system: human embryonic stem cell line H1; assay: Dose titration secondary assay: cell number, H1; type: cell-based; details: Homo sapiens, Embryonic stem cell, positive control (Wnt3a/Activin A) normalized to 1.000; for activity at 0.156 µM: Conc 0.156 μM; for activity at 0.313 µM: Conc 0.313 μM; for activity at 0.625 µM: Conc 0.625 μM; for activity at 1.25 µM: Conc 1.25 μM; for activity at 2.5 µM: Conc 2.5 μM; for activity at 5 µM: Conc 5 μM; for activity at 10 µM: Conc 10 μM
# Experimental: It was important to confirm the activity of hits identified from primary screening and further analyze the range of activity by dose titration. New samples of a selective subset of primary screening hits were obtained as dry powders, solubilized to make fresh stock reagents, and diluted into secondary confirmation assays to evaluate effects on human embryonic stem cells.
# Culture of two human embryonic stem cells (H1 and H9) was conducted as described in Example 1. Colonies of cells were maintained in an undifferentiated, pluripotent state on Matrigel™ ([…]) coated polystyrene plastic, using a 1:30 dilution of Matrigel™ in DMEM:F12 to coat the surface. Cells were split by enzymatic passage every four days on average. Passage was performed by exposing cell monolayers to a solution of collagenase (1 mg/ml; Sigma-Aldrich) for 10 to 60 minutes at 37° C. followed by gentle scraping with a pipette tip to recover cell clusters. Clusters were allowed to sediment by gravity, then washed to remove residual collagenase. Cell clusters were split at a 1:3 ratio for maintenance culture or a 1:1 ratio for subsequent assay. The human embryonic stem cell lines were maintained at less than passage 50 and routinely evaluated for normal karyotypic phenotype and absence of mycoplasma contamination.
# Cell clusters of the H1 or H9 human embryonic stem cell lines used in the assay were evenly resuspended in culture medium and plated onto Matrigel™-coated 96-well Packard VIEWPLATES (PerkinElmer) in volumes of 100 μl/well. MEF conditioned medium supplemented with 8 ng/ml bFGF was used for initial plating and expansion. Daily feeding was conducted by aspirating spent culture medium from each well and replacing with an equal volume of fresh medium. Cultures were allowed to expand one to three days after plating prior to initiating assay. Plates were maintained at 37° C., 5% CO2 in a humidified box for the duration of assay.
# A subset of hits resulting from primary screening was used for follow-up study and subsequent secondary assays. Twenty compounds available as dry powders were solubilized as 10 mM stocks in DMSO and stored dessicated at […] until use Immediately prior to assay, compound stocks were diluted 1:1000 to make 10 μM test compound in DMEM:F12 base medium (Invitrogen) supplemented with 0.5% FCS (HyClone) and 100 ng/ml Activin A (R&D Biosystems). This was further diluted two-fold in series to make a seven point dilution curve for each compound, also in DMEM:F12 base medium with 0.5% FCS and 100 ng/ml Activin A.
# Assay was initiated by aspirating culture medium from cell monolayers in each well followed by three washes in PBS to remove residual growth factors and serum. Test volumes of 100 μl per well were added back containing medium with 0.5% FCS and different concentrations of inhibitor compounds with 100 ng/ml Activin A, without Wnt3a. Positive control wells contained the same base medium with 0.5% FCS and with 20 ng/ml Wnt3a (R&D Biosystems) in the absence of test compound. Negative control wells contained the same base medium with 0.5% FCS, in the absence of Activin A, Wnt3a, or test compound. Assay wells were aspirated and fed again with identical concentrations of test compound or control solutions on day 2 of assay. On days 3 and 4, all assay wells were aspirated and fed with DMEM:F12 supplemented with 2% FCS and 100 ng/ml Activin A in the absence of both test compound or Wnt3a. Parallel negative control wells were maintained on days 3 and 4 in DMEM:F12 base medium with 2% FCS.
# At the end of culture, cells in 96-well plates were washed twice with PBS then fixed with 4% paraformaldehyde at room temperature for 20 minutes, washed three times more with PBS, and then permeabilized with 0.5% Triton X-100 for 20 minutes at room temperature. After fixing and permeabilizing, cells were washed again three times with PBS and then blocked with 4% chicken serum (Invitrogen) in PBS for 30 minutes at room temperature. […]
# [2] = MTS viability (toxicity) assay of cells expressing pluripotency markers; type: cell-based, human; details: human, MTS on day 4, relative to Activin A + Wnt3a positive control, read-out: % Control (percentage viability of control); for viability at 4 days, 2.5 μM: cmpd conc 2.5 μM; for viability at 4 days, 5 μM: cmpd conc 5 μM; for viability at 4 days, 10 μM: cmpd conc 10 μM
# Procedure, shortened: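 A GSK-3B inhibitor library was screened for toxicity to pluripotency-marker-expressing cells. Compound was given in DMEM:F12 with 0.5% FCS and 100 ng/ml Activin A for two days, then replaced by medium with 2% FCS and Activin A. On day 4, MTS absorbance at 490 nm gave viability as percent of Activin A plus Wnt3a control wells.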
smiles,measurement,setting,value
"CN(C)c1cccc(-n2cc(C3=C(c4nn(CCO)c5ccccc45)C(=O)NC3=O)c3ccccc32)c1 [Compound 145, 3-{1-[3-(Dimethylamino)phenyl]-1H-indol-3-yl}-4-[1-(2-hydroxyethyl)-1H-indazol-3-yl]-1H-pyrrole-2,5-dione]",activity at 0.156 µM,[1],46.9%
same,activity at 0.313 µM,[1],66.5%
same,activity at 0.625 µM,[1],71.3%
same,activity at 1.25 µM,[1],128%
same,activity at 2.5 µM,[1],135%
same,activity at 5 µM,[1],33.9%
same,activity at 10 µM,[1],2.1%
same,"viability at 4 days, 2.5 μM",[2],94.5%
same,"viability at 4 days, 5 μM",[2],68.4%
"CN(C)c1ccc(-n2cc(C3=C(c4nn(CCO)c5ccccc45)C(=O)NC3=O)c3cc(Cl)ccc32)cn1 [Compound 148, 3-{5-Chloro-1-[6-(dimethylamino)pyridin-3-yl]-1H-indol-3-yl}-4-[1-(2-hydroxyethyl)-1H-indazol-3-yl]-1H-pyrrole-2,5-dione]",activity at 0.156 µM,[1],121%
same,activity at 0.313 µM,[1],121%
same,activity at 0.625 µM,[1],136%
same,activity at 1.25 µM,[1],165%
same,activity at 2.5 µM,[1],172%
same,activity at 5 µM,[1],101%
same,activity at 10 µM,[1],0.2%
same,"viability at 4 days, 2.5 μM",[2],20.4%
same,"viability at 4 days, 5 μM",[2],3.8%
same,"viability at 4 days, 10 μM",[2],3.5%
"COC(=O)c1cncc(-n2cc(C3=C(c4nn(CCO)c5ccccc45)C(=O)NC3=O)c3cc(Cl)ccc32)c1 [Compound 150, Methyl 5-(5-chloro-3-{4-[1-(2-hydroxyethyl)-1H-indazol-3-yl]-2,5-dioxo-2,5-dihydro-1H-pyrrol-3-yl}-1H-indol-1-yl)pyridine-3-carboxylate]",activity at 0.156 µM,[1],104%
same,activity at 0.313 µM,[1],124%
same,activity at 0.625 µM,[1],102%
same,activity at 1.25 µM,[1],121%
same,activity at 2.5 µM,[1],129%
same,activity at 5 µM,[1],116%
same,activity at 10 µM,[1],5.2%
same,"viability at 4 days, 2.5 μM",[2],94.8%
same,"viability at 4 days, 5 μM",[2],84.9%
same,"viability at 4 days, 10 μM",[2],14.3%
"OCCC#Cc1nc(-c2ccc(F)cc2)c(-c2ccncc2)n1CCCc1ccccc1 [Compound 158, 4-[4-(4-Fluorophenyl)-1-(3-phenylpropyl)-5-pyridin-4-yl-1H-imidazol-2-yl]but-3-yn-1-ol]",activity at 0.156 µM,[1],110%
same,activity at 0.313 µM,[1],122%
same,activity at 0.625 µM,[1],123%
same,activity at 1.25 µM,[1],116%
same,activity at 2.5 µM,[1],102%
same,activity at 5 µM,[1],90.5%
same,activity at 10 µM,[1],5.3%
same,"viability at 4 days, 2.5 μM",[2],93.2%
same,"viability at 4 days, 5 μM",[2],96.2%
same,"viability at 4 days, 10 μM",[2],66.5%
"CN(CCO)CCCn1nc(C2=C(c3cn(-c4cccnc4)c4ccccc34)C(=O)NC2=O)c2ccccc21 [Compound 198, 3-(1-{3-[(2-Hydroxyethyl)(methyl)amino]propyl}-1H-indazol-3-yl)-4-(1-pyridin-3-yl-1H-indol-3-yl)-1H-pyrrole-2,5-dione]",activity at 0.156 µM,[1],82.2%
same,activity at 0.313 µM,[1],75.4%
same,activity at 0.625 µM,[1],74.2%
same,activity at 1.25 µM,[1],89.9%
same,activity at 2.5 µM,[1],103%
same,activity at 5 µM,[1],106%
same,activity at 10 µM,[1],101%
same,"viability at 4 days, 2.5 μM",[2],92.5%
same,"viability at 4 days, 5 μM",[2],83.8%
same,"viability at 4 days, 10 μM",[2],49.7%
"O=C1NC(=O)C(c2cn(-c3cccnc3)c3ccccc23)=C1c1cn(CCO)c2ccccc12 [Compound 206, 3-[1-(2-Hydroxyethyl)-1H-indol-3-yl]-4-(1-pyridin-3-yl-1H-indol-3-yl)-1H-pyrrole-2,5-dione]",activity at 0.156 µM,[1],80.4%
same,activity at 0.313 µM,[1],93.1%
same,activity at 0.625 µM,[1],109%
same,activity at 1.25 µM,[1],112%
same,activity at 2.5 µM,[1],102%
same,activity at 5 µM,[1],116%
same,activity at 10 µM,[1],3.9%
same,"viability at 4 days, 2.5 μM",[2],93.1%
same,"viability at 4 days, 5 μM",[2],90.2%
same,"viability at 4 days, 10 μM",[2],7.3%
